Drawing on patent US11766435B2, “N3-substituted iminopyrimidinones as antimalarial agents” (Merck Sharp & Dohme LLC, priority 2016, dated 2023), this text covers IC50 for 46 compounds.

Where only a bound is given, the exact number is not on record here.

For one assay, the system named is asexual P. falciparum 3D7 parasites. The assay can be described thus: P. falciparum growth inhibition assay measuring LDH activity (Assay 1). The class given is cell-based. The following applies: 3D7 strain, parasitized red blood cells, 72 h incubation, LDH activity read by absorbance at 650 nm. Here is the method: A modified version of the assay described in Gamo, F. J., Sanz, L. M., Vidal, J., de Cozar, C., Alvarez, E., Lavandera, J. L., Vanderwall, D. E., Green, D. V., Kumar, V., Hasan, S., Brown, J. R., Peishoff, C. E., Cardon, L. R., Garcia-Bustos, J. F., Nature, 465 (2010) 305-310 (Gamo et al.) was used to assess the activity of compounds against asexual P. falciparum 3D7 parasites. Compounds were pre-dispensed in 384-well plates, RPMI/AlbuMAX growth media was added and P. falciparum inoculated. Plates were incubated for 72 h and then frozen at −80° C. overnight. Lactate dehydrogenase (LDH) activity was quantified with the modified cofactor 3-acetylpyridine adenine dinucleotide (APAD) (Sigma Aldrich) by measuring absorbance of the tetrazolium indicator nitro blue tetrazolium (NBT) (Sigma Aldrich) at 650 nm.
An inoculum of synchronous P. falciparum (3D7 strain) parasitized red blood cells (PRBC) at 0.7% parasitaemia and 2% haematocrit in RPMI-1640, 5% AlbuMAX, 2% D-sucrose, 0.3% glutamine and 150 μM hypoxanthine was used for the assay.
Compound master plates (384-well) were prepared by a 10 pt serial dilution of compounds, from 1 mM to 50.8 nM, in columns 3-12 and 13-22. DMSO was dispensed into columns 1 and 23 of the compound master plate to be used as the positive growth control (100% viability). […] Intermediate compound dilution plates were prepared by dispensing 1 μl from each well of the compound master plate into 11.5 μl of RPMI/AlbuMAX growth media. Duplicate assay plates (384-well) were then prepared by dispensing 0.5 μL of compound from the intermediate dilution plates into 9.5 μl of RPMI/AlbuMAX growth media. The parasite inoculum (30 μL) was dispensed into the assay plates containing compounds using a Multidrop dispenser (Thermo Scientific) such that the final assay volume was 40 μL and final compound concentration was 1 μM-0.05 nM (the volume of compound addition can be adjusted to the preferred and agreed screening concentration). The final DMSO concentration was 0.1% (ideally 0.2% to limit toxicity to parasites), but this is dependent on volume of compound DMSO stock solution that can be supplied. Plates were incubated at 37° C. for 72 h in an atmosphere of 5% CO2, 5% O2, […].
After 72 h of incubation, plates were frozen at −80° C. overnight and then thawed at room temperature for at least 4 h. To evaluate LDH activity, 45 μL of freshly made reaction mix (174 mM sodium L-lactate (Sigma Aldrich), 214 μM 3-acetyl pyridine adenine dinucleotide (APAD) (Sigma Aldrich), 270 μM nitro blue tetrazolium chloride (NBT) (Sigma Aldrich), 4.35 U/mL diaphorase (from Clostridium kluyveri) (Sigma Aldrich), 0.7% Tween 20, 100 mM Tris-HCl pH 7.5) was dispensed using a Multidrop dispenser (Thermo Scientific). Plates were shaken to ensure mixing and absorbance at 650 nm was monitored using a Perkin Elmer Envision plate reader after 30 min of incubation at room temperature. Data were normalized to percent growth inhibition using positive and negative controls, and analysed using TIBCO Spotfire software. […]
With `CC(C)[C@]1(C)CC(=O)N(Cc2cc(F)cc(C(=O)NC(CCN(C)C)c3ccccc3)c2)C(=N)N1` (stereo partly shown) [Compound 34], the IC50 came out at 0.31 µM.
`C[C@H](NC(=O)c1cccc(C(c2ccccc2)N2C(=N)NC(C)(C)CC2=O)c1)c1ccccc1` (single isomer, unassigned) [Compound 27] showed an IC50 of 0.014 µM.
Still for that read-out and setting: the result for `CC(C)[C@]1(C)CC(=O)N(C(c2ccccc2)c2cccc(C(=O)N[C@@H](C)c3ccccc3)c2)C(=N)N1` (stereo partly shown) [Compound 55] reads 0.0035 µM; that for `CC(C)[C@]1(C)CC(=O)N(C(c2ccccc2)c2cccc(C(=O)N[C@@H](C)c3ccccc3)c2)C(=N)N1` (stereo partly shown) [Compound 1], 0.003 µM.
Same read-out and setting: in the case of `CC(C)[C@]1(C)CC(=O)N(C(c2ccccc2)c2cccc(C(=O)N[C@@H](C)c3ccccc3)c2)C(=N)N1` (stereo partly shown) [Compound 56] it was 0.36 µM; in that of `C[C@H](NC(=O)c1cccc(C(c2ccccc2)N2C(=N)NC(C)(C)CC2=O)c1)c1ccccc1` (single isomer, unassigned) [Compound 28], > 1 µM.

The same assay, now with this note: Plasmodium falciparum, 3D7, Erythrocyte, 72 h, 3D7 strain, parasitized red blood cells, 72 h incubation, LDH activity read by absorbance at 650 nm.
`CCC1(CC)CC(=O)N(Cc2cc(F)cc(C(=O)N[C@@H](C)c3ccccc3)c2)C(=N)N1` [Compound 31] returned an IC50 of 0.094 µM.
For the compound `CC(C)CC(c1ccc(C(F)(F)F)c(C(=O)N2Cc3nccnc3C2)c1)N1C(=N)N[C@](CC2CC2)(c2ccccc2)CC1=O` (stereo partly shown) [Compound 2], the IC50 worked out at 0.0013 µM.
Same read-out and setting: in the case of `COCC[C@H](NC(=O)c1cc(Cl)cc(CN2C(=N)N[C@](C)(C(C)C)CC2=O)c1)c1ccccc1` [Compound 5] it was 0.00253 µM; in that of `CC(C)[C@]1(C)CC(=O)N(Cc2cc(F)cc(C(=O)N[C@H]3CCCc4ccccc43)c2)C(=N)N1` [Compound 4], 0.00168 µM.
In the case of `CC(C)[C@]1(C)CC(=O)N(Cc2cc(F)cc(C(=O)N[C@H](C)c3ccccc3)c2)C(=N)N1` [Compound 23], the half-inhibitory concentration (IC50) is 0.033 µM.
Take `N=C1N[C@](CC2CC2)(c2ccccc2)CC(=O)N1Cc1ccc(-c2ccncc2)c(C(=O)N2Cc3nccnc3C2)c1` [Compound 7]: the IC50 worked out at 0.00327 µM.
Consider `C[C@H](NC(=O)c1cc(F)cc(CN2C(=N)N[C@@](C)(c3ccccc3)CC2=O)c1)c1ccccc1` [Compound 36], for which half-maximal inhibition (IC50) was put at 0.13 µM.
Still for that read-out and setting: in the case of `C[C@H](NC(=O)c1cc(F)cc(CN2C(=N)NC3(CCC(C)(C)CC3)CC2=O)c1)c1ccccc1` [Compound 37] it was 0.62 µM.
Take `Cc1ccccc1CNC(=O)c1ccc(CN2C(=N)N[C@](C)(C(C)C)CC2=O)cc1` [Compound 44]: the IC50 is 0.32 µM. Compared with the last compound, the IC50 is about 1.9-fold lower.
On to `CC(C)[C@]1(C)CC(=O)N([C@H](C)c2cccc(N3C[C@H](c4ccccc4)CC3=O)c2)C(=N)N1` [Compound 20], for which the IC50 worked out at 0.014 µM.
The compound `CC(C)[C@]1(C)CC(=O)N([C@H](C)c2cc(F)cc(C(=O)N[C@@H](C)c3ccccc3)c2)C(=N)N1` [Compound 13] gave an IC50 of 0.00643 µM.
As to `CCC1(CC)CC(=O)N(Cc2cc(F)cc(C(=O)N3Cc4ccccc4C3)c2)C(=N)N1` [Compound 50], the IC50 worked out at 0.61 µM.
On the same count and under the same terms, the result for `CC(C)[C@]1(C)CC(=O)N([C@H](C)c2cccc(C(=O)N[C@@H](C)c3cccc(Cl)c3)c2)C(=N)N1` [Compound 21] reads 0.0199 µM.
`CC(C)[C@]1(C)CC(=O)N(Cc2ccc(C(=O)N3Cc4ccccc4C3)cc2)C(=N)N1` [Compound 47]: 0.49 µM corresponded to half-maximal inhibition (IC50).
With `CC(C)[C@]1(C)CC(=O)N(Cc2ccc(C(=O)NCc3ccccc3F)cc2)C(=N)N1` [Compound 41], the IC50 was found to be 0.43 µM. This IC50 and that of the compound before are within 1.5-fold of each other.
On to `CC(C)[C@]1(C)CC(=O)N(Cc2cc(F)cc(C(=O)NC3CCCCCC3)c2)C(=N)N1` [Compound 19], for which the IC50 came out at 0.014 µM. Compared with the last compound, the IC50 is about 31-fold lower.
Regarding `N=C1N[C@](CC2CC2)(c2ccccc2)CC(=O)N1Cc1ccc(C(F)(F)F)c(C(=O)N2CCn3c(nnc3C(F)(F)F)C2)c1` [Compound 22], the midpoint of inhibition, the IC50, lay at 0.0272 µM.
Regarding `C[C@H](NC(=O)c1cc(F)cc(CN2C(=N)NC(c3ccccc3)(c3ccccc3)CC2=O)c1)c1ccccc1` [Compound 38], the 50% inhibitory concentration (IC50) was determined as 0.57 µM.
Still for that read-out and setting: the result for `CC(C)[C@]1(C)CC(=O)N(Cc2cc(F)cc(C(=O)NC(CCN(C)C)c3ccccc3)c2)C(=N)N1` (stereo partly shown) [Compound 30] reads 0.26 µM.
Same read-out and setting: in the case of `N=C1N[C@](CC2CC2)(c2ccccc2)CC(=O)N1Cc1ccc(Br)c(C(=O)N2Cc3nccnc3C2)c1` [Compound 12] it was 0.00601 µM; in that of `CC(C)[C@]1(C)CC(=O)N(Cc2ccc(C(=O)NCc3cccc(F)c3)cc2)C(=N)N1` [Compound 42], 0.48 µM.
In turn, `CC(C)[C@]1(C)CC(=O)N(C(c2ccccc2)c2cccc(C(=O)N3Cc4ccccc4C3)c2)C(=N)N1` (stereo partly shown) [Compound 51] displayed an IC50 of 0.049 µM.
As to `CC(C)[C@]1(C)CC(=O)N(Cc2cc(F)cc(C(=O)N3Cc4ccccc4C3)c2)C(=N)N1` [Compound 35], the 50% inhibitory concentration (IC50) was 0.39 µM.
Same read-out and setting: in the case of `CC(C)[C@]1(C)CC(=O)N(Cc2ccc(C(=O)N[C@@H](C)c3ccccc3)cc2)C(=N)N1` [Compound 40] it was 0.63 µM.
On the same count and under the same terms, in the case of `COCC[C@H](NC(=O)c1cc(F)cc(CN2C(=N)N[C@](C)(C(C)C)CC2=O)c1)c1ccccc1` [Compound 11] it was 0.00567 µM.
As to `COCC[C@H](NC(=O)c1cccc(CN2C(=N)N[C@](C)(C(C)C)CC2=O)c1)c1ccccc1` [Compound 10], half-maximal inhibition (IC50) required 0.00534 µM.
`CC(C)[C@]1(C)CC(=O)N([C@H](C)c2cccc(N3C[C@@H](c4ccccc4)CC3=O)c2)C(=N)N1` [Compound 16] registered an IC50 of 0.00806 µM.
The compound `COCC[C@H](NC(=O)c1cc(F)cc(CN2C(=N)N[C@](C)(C(C)C)CC2=O)c1)c1ccc(F)cc1` [Compound 17] registered an IC50 of 0.0106 µM.
For `C[C@@]1(c2c(F)cc(F)cc2F)CC(=O)N(Cc2cccc(C(=O)N3Cc4ccccc4C3)c2)C(=N)N1` [Compound 25], the IC50 amounted to 0.139 µM.
On to `Cc1ccc(CNC(=O)c2ccc(CN3C(=N)N[C@](C)(C(C)C)CC3=O)cc2)cc1` [Compound 46], for which it took 0.55 µM to reach half-maximal inhibition (IC50).
In the case of `CCC1(CC)CC(=O)N(Cc2cc(F)cc(C(=O)N(C)[C@@H](C)c3ccccc3)c2)C(=N)N1` [Compound 29], the IC50 amounted to 0.87 µM.
`CCC1(CC)CC(=O)N(Cc2cc(F)cc(C(=O)N3Cc4nccnc4C3)c2)C(=N)N1` [Compound 53] showed an IC50 of 0.87 µM.
Consider `CC(C)[C@]1(C)CC(=O)N(Cc2ccc(C(=O)NCc3ccc(F)cc3)cc2)C(=N)N1` [Compound 43], for which 0.86 µM corresponded to half-maximal inhibition (IC50).
Regarding `CC(C)[C@]1(C)CC(=O)N(Cc2cc(C(=O)N[C@@H](C)c3ccccc3)ccc2F)C(=N)N1` [Compound 18], the IC50 is 0.0129 µM.
On to `C[C@H](NC(=O)c1cc(F)cc(CN2C(=N)NC3(CCCC3)CC2=O)c1)c1ccccc1` [Compound 32], for which the IC50 is 0.5 µM.
In the case of `COCC[C@H](NC(=O)c1cc(F)cc(CN2C(=N)NC3(CCCC3)CC2=O)c1)c1ccccc1` [Compound 9], the IC50 was determined as 0.00419 µM. Compared with the last compound, the IC50 is about 120-fold lower.
For `C[C@H](NC(=O)c1cc(F)cc(CN2C(=N)NC3(CCCCC3)CC2=O)c1)c1ccccc1` [Compound 33], the IC50 is 0.26 µM.
As to `Cc1cccc(CNC(=O)c2ccc(CN3C(=N)N[C@](C)(C(C)C)CC3=O)cc2)c1` [Compound 45], the IC50 came out at 0.81 µM.
On to `CC(C)[C@]1(C)CC(=O)N(Cc2cc(F)cc(C(=O)N[C@H]3CCc4ccccc43)c2)C(=N)N1` [Compound 6], for which the IC50 was determined as 0.00292 µM.
`C[C@H](NC(=O)c1cc(F)cc(CN2C(=N)NC3(CCC3)CC2=O)c1)c1ccccc1` [Compound 39]: the IC50 is 1 µM.
